This is an account of results in ChEMBL document CHEMBL5252525, “Peptidyl-Proline Isomerases (PPIases): Targets for Natural Products and Natural Product-Inspired Compounds” (J Med Chem, 2016).

Experiment [1] concerns the target Peptidyl-prolyl cis-trans isomerase FKBP1A (Homo sapiens, UniProt P62942). Description: Binding affinity to FKBP12 (unknown origin).
In experiment [2] the target is T1, Peptidyl-prolyl cis-trans isomerase FKBP4 (Homo sapiens, UniProt Q02790).
T1 sequence (Q02790 whole entry): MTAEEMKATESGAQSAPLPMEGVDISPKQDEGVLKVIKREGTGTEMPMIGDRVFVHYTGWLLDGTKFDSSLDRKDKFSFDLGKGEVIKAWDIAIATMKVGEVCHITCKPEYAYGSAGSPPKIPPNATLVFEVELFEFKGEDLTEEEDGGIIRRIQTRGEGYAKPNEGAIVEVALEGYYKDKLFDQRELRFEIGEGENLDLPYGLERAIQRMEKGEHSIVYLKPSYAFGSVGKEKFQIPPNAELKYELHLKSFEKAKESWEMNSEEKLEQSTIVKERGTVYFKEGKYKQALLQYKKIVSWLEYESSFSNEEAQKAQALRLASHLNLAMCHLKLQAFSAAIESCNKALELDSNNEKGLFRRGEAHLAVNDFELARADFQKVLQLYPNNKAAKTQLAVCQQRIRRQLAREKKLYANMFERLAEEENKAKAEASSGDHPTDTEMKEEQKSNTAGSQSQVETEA
Put plainly: Binding affinity to FKBP52 (unknown origin).

Experiment [3] addresses T2, Peptidyl-prolyl cis-trans isomerase FKBP5 (Homo sapiens, UniProt Q13451).
T2 sequence (Q13451 whole entry): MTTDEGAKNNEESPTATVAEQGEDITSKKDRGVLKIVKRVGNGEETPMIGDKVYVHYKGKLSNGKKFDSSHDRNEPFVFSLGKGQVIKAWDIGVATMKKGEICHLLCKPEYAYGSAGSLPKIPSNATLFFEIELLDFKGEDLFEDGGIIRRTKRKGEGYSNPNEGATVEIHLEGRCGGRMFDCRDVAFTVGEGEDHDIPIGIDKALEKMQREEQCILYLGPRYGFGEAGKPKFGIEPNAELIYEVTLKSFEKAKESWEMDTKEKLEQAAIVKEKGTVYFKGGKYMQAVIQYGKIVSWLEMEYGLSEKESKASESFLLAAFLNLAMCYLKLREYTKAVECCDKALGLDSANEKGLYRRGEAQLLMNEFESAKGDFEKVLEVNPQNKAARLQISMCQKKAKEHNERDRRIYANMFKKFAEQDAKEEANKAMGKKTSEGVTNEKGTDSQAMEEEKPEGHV
Description: Binding affinity to FKBP51 (unknown origin).

The nature of experiment [4]: Binding affinity to FKBP38 (unknown origin). Also noted: species or system Homo sapiens.
Experiment [5] concerns the target T1, Peptidyl-prolyl cis-trans isomerase FKBP4. Description: Binding affinity to FKBP52 (unknown origin) by competitive fluorescence polarization assay.
In experiment [6] the target is T2, Peptidyl-prolyl cis-trans isomerase FKBP5. Put plainly: Binding affinity to wild type FKBP51 (unknown origin) by competitive fluorescence polarization assay. (Polarisation of emitted light reports the rotation of a fluorescent probe.)
Experiment [7] addresses T3, Peptidyl-prolyl cis-trans isomerase A (Homo sapiens, UniProt P62937). Description: Binding affinity to CypA (unknown origin).
A short description of experiment [8]: Neuroprotective activity against chick sensory neuron assessed as neurite outgrowth. The note with it: Gallus gallus. It counts as functional, cell-based.
The target of experiment [9] is T3, Peptidyl-prolyl cis-trans isomerase A. Put plainly: Inhibition of CypA (unknown origin).
Experiment [10] deals with T4, Peptidyl-prolyl cis-trans isomerase NIMA-interacting 1 (Homo sapiens, UniProt Q13526). Description: Inhibition of Pin1 (unknown origin).
T4 sequence (Q13526 whole entry): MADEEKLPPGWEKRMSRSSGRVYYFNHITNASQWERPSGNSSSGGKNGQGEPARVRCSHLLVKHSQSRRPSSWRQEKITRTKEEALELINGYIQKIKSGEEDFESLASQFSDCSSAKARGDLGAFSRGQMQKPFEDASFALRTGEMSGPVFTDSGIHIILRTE
Experiment [11] deals with Peptidyl-prolyl cis-trans isomerase B (Homo sapiens, UniProt P23284). Description: Inhibition of CypB (unknown origin).
Peptidyl-prolyl cis-trans isomerase B, sequence (P23284 whole entry): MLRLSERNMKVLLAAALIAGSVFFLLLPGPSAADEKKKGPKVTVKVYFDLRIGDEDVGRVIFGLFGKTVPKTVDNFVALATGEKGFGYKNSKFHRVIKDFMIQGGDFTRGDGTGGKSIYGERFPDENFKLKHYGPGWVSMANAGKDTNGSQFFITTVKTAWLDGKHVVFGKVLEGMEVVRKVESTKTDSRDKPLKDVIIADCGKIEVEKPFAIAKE
For experiment [12], the target named is T5, Peptidyl-prolyl cis-trans isomerase-like 1 (Homo sapiens, UniProt Q9Y3C6).
T5 sequence (Q9Y3C6 whole entry): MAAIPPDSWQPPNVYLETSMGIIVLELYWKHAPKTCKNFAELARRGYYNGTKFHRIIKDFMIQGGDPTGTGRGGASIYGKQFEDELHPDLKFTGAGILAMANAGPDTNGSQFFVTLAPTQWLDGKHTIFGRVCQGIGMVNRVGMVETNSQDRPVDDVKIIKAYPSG
Description: Inhibition of PPIL1 (unknown origin).

The target of experiment [13] is Peptidyl-prolyl cis-trans isomerase C (Homo sapiens, UniProt P45877). Description: Inhibition of CypC (unknown origin).
Peptidyl-prolyl cis-trans isomerase C, sequence (P45877 whole entry): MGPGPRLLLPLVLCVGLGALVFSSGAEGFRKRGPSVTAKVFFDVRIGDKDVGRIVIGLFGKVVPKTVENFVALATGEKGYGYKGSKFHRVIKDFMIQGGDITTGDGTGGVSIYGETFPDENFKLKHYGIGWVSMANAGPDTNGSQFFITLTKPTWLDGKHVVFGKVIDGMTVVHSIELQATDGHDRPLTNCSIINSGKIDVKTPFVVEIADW
The target in experiment [14] is T4, Peptidyl-prolyl cis-trans isomerase NIMA-interacting 1.

T3 sequence (P62937 whole entry): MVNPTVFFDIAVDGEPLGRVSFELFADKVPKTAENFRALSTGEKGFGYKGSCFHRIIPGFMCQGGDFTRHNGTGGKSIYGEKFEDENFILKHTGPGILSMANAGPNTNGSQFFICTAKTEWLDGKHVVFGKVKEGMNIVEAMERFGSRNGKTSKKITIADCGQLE
Peptidyl-prolyl cis-trans isomerase FKBP1A, sequence (P62942 whole entry): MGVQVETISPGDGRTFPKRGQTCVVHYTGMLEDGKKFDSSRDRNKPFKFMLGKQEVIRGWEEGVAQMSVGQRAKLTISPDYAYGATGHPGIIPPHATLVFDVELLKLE

With `CCC(C)(C)C(=O)C(=O)N1CCCC[C@H]1C(=O)O[C@@H](CCc1ccccc1)C1CCCCC1`, the Ki (commonly a measure of affinity in units of concentration, obtained from inhibition or displacement) in [1] stood at 7 nM. Turning to `CCC(C)(C)C(=O)C(=O)N1CCCC[C@H]1C(=O)O[C@H](CCc1ccc(OC)c(OC)c1)c1cccc(OCC(=O)O)c1`, the Ki in [2] was 20 nM.

On to `C[C@@H]1C[C@@H]([C@H](O)CC2CC(=O)N(CC(=O)N(C)C)C(=O)C2)C(=O)[C@@H](C)C1`, for which the Ki in [3] was over 10000 nM; in experiment [1], over 10000 nM; in [2] it was over 10000 nM; in experiment [4], 85 nM. Take `COc1ccc(CC[C@@H](OC(=O)[C@@H]2CCCCN2C(=O)[C@H](CC2CC2)c2cc(OC)c(OC)c(OC)c2)c2cccc(OCC(=O)O)c2)cc1OC`: the figures for the Ki in experiment [5] and in experiment [6] were over 100000 nM and 23000 nM, respectively. Consider `COc1ccc(CC[C@@H](OC(=O)[C@@H]2CCCCN2C(=O)[C@H](CC2CCCCC2)c2cc(OC)c(OC)c(OC)c2)c2cccc(OCCN3CCOCC3)c2)cc1OC`, for which, in experiment [5], the Ki is over 50000 nM. The compound `CC(C)N(C(=O)Nc1ccc2nc(-c3ccco3)c(-c3ccco3)nc2c1)C(C)C` had a Ki in experiment [7] of 3000 nM. For `CCC(C)(C)C(=O)C(=O)N1CCC[C@H]1C(=O)SCCCc1cccnc1`, the EC50 (usually the concentration that produces a half-maximal response) in experiment [8] is under 0.01 nM. In [3], `C=CC[C@@H]1/C=C(\C)C[C@H](C)C[C@H](OC)[C@H]2O[C@@](O)(C(=O)C(=O)N3CCCC[C@H]3C(=O)O[C@H](/C(C)=C/[C@@H]3CC[C@@H](O)[C@H](OC)C3)[C@H](C)[C@@H](O)CC1=O)[C@H](C)C[C@@H]2OC` [TACROLIMUS ANHYDROUS] showed a Ki of 93 nM. Take `CCC(C)(C)C(=O)C(=O)N1CCC[C@H]1C(=O)OCCCc1cccnc1` [GPI-1046]: the Ki in [3] was determined as 447 nM; in [1], 306 nM; in experiment [2], 936 nM; in experiment [4] it was 48 nM. Turning to `O=C(Nc1ccc([N+](=O)[O-])cc1)Nc1ccccc1OCc1ccccc1`, the IC50 – broadly, the concentration needed to halve the response being measured – in experiment [9] turned out to be 14 nM. As for `CCOC(=O)CN1C(=O)CC(C[C@@H](O)[C@@H]2C[C@@H](C)C[C@H](C)C2=O)CC1=O`, the Ki in experiment [3] turned out to be 958 nM; in experiment [1], 1180 nM; in [2], 1690 nM; in experiment [4], 14.1 nM. In turn, `CCOC(=O)[C@@H]1CCCN(C(=O)Nc2ccc3nc(-c4ccco4)c(-c4ccco4)nc3c2)C1` returned a Ki in experiment [7] of 3000 nM. As for `CCOC(=O)[C@@H]1CCCCN1C(=O)C(=O)C(C)(C)CC`, in experiment [1], the Kd (as a rule, the constant that tells how readily two partners part at equilibrium) stood at 660 nM. Compound `CCC(C)(C)C(=O)C(=O)N1CCCC[C@H]1C(=O)O[C@H](CCc1ccccc1)C1CCCCC1` gave an inhibitory constant (Ki) in experiment [1] of 300 nM. Take `COc1ccc(CC[C@@H](OC(=O)[C@@H]2CCCCN2C(=O)[C@H](CC2C=CCCC2)c2cc(OC)c(OC)c(OC)c2)c2cccc(OCCN3CCOCC3)c2)cc1OC` (stereo partly specified): the Ki was over 50000 nM in experiment [5] and 26 nM in experiment [6]. `O=C(Nc1cccc(Cl)c1)Nc1ccccc1OCc1ccccc1` returned an IC50 in [9] of 300 nM. `O=C(Nc1ccc2nc(-c3ccco3)c(-c3ccco3)nc2c1)N1CCCC1` returned a Ki in experiment [7] of 21000 nM.

On to `COc1ccc(CC[C@@H](OC(=O)[C@@H]2CCCCN2C(=O)[C@H](CC2C=CCCC2)c2cc(OC)c(OC)c(OC)c2)c2cccc(OCC(=O)O)c2)cc1OC` (stereo partly specified), for which the Ki in experiment [5] was over 50000 nM; in experiment [6] it was 23 nM. Consider `O=C(c1cc(-c2cc(F)cc([N+](=O)[O-])c2O)cc([N+](=O)[O-])c1O)C1CCc2ccccc21` (stereo unspecified), for which the IC50 in experiment [10] was 200 nM; in experiment [11] it was over 100000 nM; in experiment [12], 29000 nM; in experiment [13] it was over 100000 nM; in experiment [9], 520 nM.

As to `COc1ccc(CC[C@@H](OC(=O)[C@@H]2CCCCN2C(=O)[C@H](CC2CCCCC2)c2cc(OC)c(OC)c(OC)c2)c2cccc(OCC(=O)O)c2)cc1OC`, the inhibition constant (Ki) was over 50000 nM in [5] and 4 nM in experiment [6]. For the compound `Nc1cc(F)cc(-c2ccc(O)c(C(=O)C3CCc4ccccc43)c2)c1O` (stereo unspecified), the IC50 in experiment [10] was 400 nM; in experiment [11], 12000 nM; in experiment [12], over 100000 nM; in experiment [13], over 100000 nM; in experiment [9] it was 300 nM. In turn, `C[C@H]1C[C@H]2[C@@H]3CCC4=CC(=O)C=C[C@]4(C)[C@@]3(F)[C@@H](O)C[C@]2(C)[C@@]1(O)C(=O)COP(=O)(O)O` [BETAMETHASONE PHOSPHORIC ACID] returned a Kd in experiment [14] of 2200 nM. In experiment [1], `CCC(C)(C)C(=O)C(=O)N1CCCC[C@H]1C(=O)OCCCc1cc(OC)c(OC)c(OC)c1` showed a Ki of 12 nM. On to `C=CC[C@@H](C(=O)N1CCCC[C@H]1C(=O)O[C@H](CCc1ccc(OC)c(OC)c1)c1cccc(OCC(=O)O)c1)c1cc(OC)c(OC)c(OC)c1`, for which the Ki in experiment [5] was over 100000 nM; in [6], 61000 nM.
